Data on 28 compounds can be found in patent US9399647B2, “Proteasome activity modulating compounds” (Proteostasis Therapeutics, Inc., priority 2012, dated 2016).

Where two headings read alike, the source gives them in different places.

In the assay the target is USP14 (Homo sapiens, UniProt P54578). The experiment in a line: USP14 inhibition assay. The format is biochemical. The settings on record: average value from three experimental determinations. The text has this:
The IC50 values in the Table below represent the average value from three experimental determinations.
These IC50 values represent the average value from three experimental determinations.

Where [1] appears, read: reported as potency bands, read-out: IC50 (USP14 inhibition).

Chain of USP14 (P54578 whole entry): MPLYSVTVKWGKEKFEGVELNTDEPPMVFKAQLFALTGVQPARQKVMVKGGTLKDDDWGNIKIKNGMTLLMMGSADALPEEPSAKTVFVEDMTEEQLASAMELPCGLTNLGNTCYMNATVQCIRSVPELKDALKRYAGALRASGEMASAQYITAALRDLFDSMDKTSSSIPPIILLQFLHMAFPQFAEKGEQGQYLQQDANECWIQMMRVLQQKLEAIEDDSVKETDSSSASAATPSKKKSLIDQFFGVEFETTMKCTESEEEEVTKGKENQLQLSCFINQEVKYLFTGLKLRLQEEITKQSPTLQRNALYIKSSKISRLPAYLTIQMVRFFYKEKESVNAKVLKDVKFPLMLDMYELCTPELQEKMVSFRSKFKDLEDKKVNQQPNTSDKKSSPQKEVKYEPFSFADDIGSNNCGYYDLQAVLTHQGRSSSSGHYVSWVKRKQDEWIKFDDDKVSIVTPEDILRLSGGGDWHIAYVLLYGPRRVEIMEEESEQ
Chain of USP14 (Q13200 whole entry partner): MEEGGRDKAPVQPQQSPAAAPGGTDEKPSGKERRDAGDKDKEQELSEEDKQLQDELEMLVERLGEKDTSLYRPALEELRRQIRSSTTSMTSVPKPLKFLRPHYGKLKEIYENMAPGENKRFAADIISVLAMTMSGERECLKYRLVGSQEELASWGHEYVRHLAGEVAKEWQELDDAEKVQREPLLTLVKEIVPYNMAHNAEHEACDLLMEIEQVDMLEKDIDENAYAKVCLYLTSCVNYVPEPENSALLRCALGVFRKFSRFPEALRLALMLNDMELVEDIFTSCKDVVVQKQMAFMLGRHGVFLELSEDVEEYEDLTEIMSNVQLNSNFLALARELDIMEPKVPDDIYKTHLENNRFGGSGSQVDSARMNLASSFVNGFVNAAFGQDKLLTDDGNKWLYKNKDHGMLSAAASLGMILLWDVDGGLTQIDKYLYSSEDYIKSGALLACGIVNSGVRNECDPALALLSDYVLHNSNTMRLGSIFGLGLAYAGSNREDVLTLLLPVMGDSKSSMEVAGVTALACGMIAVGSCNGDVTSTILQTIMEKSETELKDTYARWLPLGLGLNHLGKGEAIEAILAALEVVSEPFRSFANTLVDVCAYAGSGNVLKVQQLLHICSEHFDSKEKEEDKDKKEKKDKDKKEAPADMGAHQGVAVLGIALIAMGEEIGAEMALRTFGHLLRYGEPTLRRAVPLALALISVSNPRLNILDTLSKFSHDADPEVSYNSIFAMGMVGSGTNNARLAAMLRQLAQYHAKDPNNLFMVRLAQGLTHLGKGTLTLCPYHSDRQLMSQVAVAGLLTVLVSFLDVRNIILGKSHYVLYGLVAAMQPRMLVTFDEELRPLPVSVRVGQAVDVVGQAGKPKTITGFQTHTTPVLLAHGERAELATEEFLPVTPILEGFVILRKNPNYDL
Chain of USP14 (P35998 whole entry partner): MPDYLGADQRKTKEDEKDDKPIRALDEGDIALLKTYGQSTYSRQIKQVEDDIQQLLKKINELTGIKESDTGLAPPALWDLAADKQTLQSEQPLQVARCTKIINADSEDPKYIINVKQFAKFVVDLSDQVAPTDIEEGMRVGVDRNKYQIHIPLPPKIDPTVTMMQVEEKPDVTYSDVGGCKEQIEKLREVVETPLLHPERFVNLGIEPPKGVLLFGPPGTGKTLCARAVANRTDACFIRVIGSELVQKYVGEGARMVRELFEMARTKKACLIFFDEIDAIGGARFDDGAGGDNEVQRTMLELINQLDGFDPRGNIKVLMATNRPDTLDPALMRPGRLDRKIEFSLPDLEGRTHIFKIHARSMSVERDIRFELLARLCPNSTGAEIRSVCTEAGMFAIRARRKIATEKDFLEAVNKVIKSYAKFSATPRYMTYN

The IC50 is the concentration that inhibits the measured activity by half. `CN(c1nc(CC(=O)N2CCCC(O)C2)nc2sc3c(c12)CCCC3)C1CC1` (stereo not shown) [Compound 33, 2-[4-(Cyclopropyl-methyl-amino)-5,6,7,8-tetrahydro-benzo[4,5]thieno[2,3-d]pyrimidin-2-yl]-1-(3-hydroxy-piperidin-1-yl)-ethanone]: the IC50 under setting [1] was below 1000 nM. Still for that read-out and setting: with `CN(c1nc(CC(=O)NCc2ccncc2)nc2sc3c(c12)CCCC3)C1CC1` [Compound 16] the figure was 1000 to 5000 nM. Still for that read-out and setting: with `CN(c1nc(CC(=O)N2CCC(S(C)(=O)=O)C2)nc2sc3c(c12)CCCC3)C1CC1` (stereo not shown) [Compound 25, 2-[4-(Cyclopropyl-methyl-amino)-5,6,7,8-tetrahydro-benzo[4,5]thieno[2,3-d]pyrimidin-2yl]-1-(3-methanesulfonyl-pyrrolidin-1-yl)-ethanone] the figure was below 1000 nM; with `CN(C)C(=O)CCc1nc(N(C)C2CC2)c2c3c(sc2n1)CCCC3` [Compound 48, 3-[4-(Cyclopropyl-methyl-amino)-5,6,7,8-tetrahydro-[1]benzothiopheno[2,3-d]pyrimidin-2-yl]-N,N-dimethyl-propionamide], 1000 to 5000 nM; with `CN(C)C(=O)Cc1nc(N(C)C2CC2)c2c3c(sc2n1)CCCCC3` [Compound 53, 2-[4-(Cyclopropyl-methyl-amino)-6,7,8,9-tetrahydro-5H-10-thia-1,3-diaza-benz[a]azulen-2-yl]-N,N-dimethyl-acetamide], 1000 to 5000 nM. Regarding `CC(C)N(C)c1nc(CC(=O)O)nc2sc3c(c12)CCCC3` [Compound 46, [4-(Isopropyl-methyl-amino)-5,6,7,8-tetrahydro-benzo[4,5]thieno[2,3-d]pyrimidin-2-yl]-acetic acid], under setting [1], the IC50 is above 5000 nM.

Consider `CN(c1nc(CC(=O)N2CC[C@H](N(C)C)C2)nc2sc3c(c12)CCCC3)C1CC1` [Compound 24, 2-[4-(Cyclopropyl-methyl-amino)-5,6,7,8-tetrahydrobenzo[4,5]thieno[2,3-d]pyrimidin-2yl]-1-((S)-3-dimethylamino-pyrrolidin-1-yl)-ethanone], for which the IC50 under setting [1] is below 1000 nM. Still for that read-out and setting: the value for `CN(c1nc(CO)nc2sc3c(c12)CCCC3)C1CC1` [Compound 49, [4-(Cyclopropyl-methyl-amino)-5,6,7,8-tetrahydro-benzo[4,5]thieno[2,3-d]pyrimidin-2-yl]-methanol] was 1000 to 5000 nM. On to `CC(C)NC(=O)Cc1nc(N(C)C2CC2)c2c3c(sc2n1)CCCC3` [Compound 28, 2-[4-(Cyclopropyl-methyl-amino)-5,6,7,8-tetrahydro-benzo[4,5]thieno[2,3-d]pyrimidin-2-yl]-N-isopropyl-acetamide], for which the IC50 under setting [1] lay within 1000 to 5000 nM.

`CN(c1nc(CC(=O)NCCc2ccncc2)nc2sc3c(c12)CCCC3)C1CC1` [Compound 22]: the IC50 under setting [1] is above 5000 nM. Still for that read-out and setting: with `CN(c1nc(CC(=O)N2CCC(CO)C2)nc2sc3c(c12)CCCC3)C1CC1` (stereo not shown) [Compound 36, 2-[4-(Cyclopropyl-methyl-amino)-5,6,7,8-tetrahydro-benzo[4,5]thieno[2,3-d]pyrimidin-2-yl]-1-(3-hydroxymethyl-pyrrolidin-1-yl)-ethanone] the figure was below 1000 nM; with `CN(c1nc(CC(=O)C(F)(F)F)nc2sc3c(c12)CCCC3)C1CC1` [Compound 51, 3-[4-(Cyclopropyl-methyl-amino)-5,6,7,8-tetrahydrobenzo[4,5]thieno[2,3-d]pyrimidin-2-yl]-1,1,1-trifluoro-propan-2-one], 1000 to 5000 nM. Still for that read-out and setting: with `CN(c1nc(CC(=O)N2CC[C@@H](N(C)C)C2)nc2sc3c(c12)CCCC3)C1CC1` [Compound 30, 2-[4-(Cyclopropyl-methyl-amino)-5,6,7,8-tetrahydro-benzo[4,5]thieno[2,3-d]pyrimidin-2-yl]-1-((R)-3-dimethylamino-pyrrolidin-1-yl)-ethanone] the figure was below 1000 nM. The same measure, in the same setting: the value for `CCOC(=O)Cc1nc(N(C)CC)c2c3c(sc2n1)CCCC3` [Compound 40, [4-(Ethyl-methyl-amino)-5,6,7,8-tetrahydro-benzo[4,5]thieno[2,3-d]pyrimidin-2-yl]-acetic acid ethyl ester] was above 5000 nM. Consider `CN(c1nc(CC(=O)N2CCC(F)(F)C2)nc2sc3c(c12)CCCC3)C1CC1` [Compound 7, 2-[4-(Cyclopropyl-methyl-amino)-5,6,7,8-tetrahydro-benzo[4,5]thieno[2,3-d]pyrimidin-2-yl]-1-(3,3-difluoro-pyrrolidin-1-yl)-ethanone], for which the IC50 under setting [1] lay in the range of 1000 to 5000 nM. Same read-out and setting: the value for `CN(c1nc(CC(=O)NCCC(C)(C)O)nc2sc3c(c12)CCCC3)C1CC1` [Compound 35, 2-[4-(Cyclopropyl-methyl-amino)-5,6,7,8-tetrahydro-benzo[4,5]thieno[2,3-d]pyrimidin-2-yl]-N-(3-hydroxy-3-methyl-butyl)-acetamide] was 1000 to 5000 nM; that for `CN(C)C(=O)Cc1nc(N2CCCC2)c2c3c(sc2n1)CCCC3` [Compound 42, N,N-Dimethyl-2-(4-pyrrolidin-1-yl-5,6,7,8-tetrahydro-benzo[4,5]thieno[2,3-d]pyrimidin-2-yl)-acetamide] was above 5000 nM. Still for that read-out and setting: with `CN(c1nc(CC(=O)N2CCC(C(N)=O)CC2)nc2sc3c(c12)CCCC3)C1CC1` [Compound 31, 1-{2-[4-(Cyclopropyl-methyl-amino)-5,6,7,8-tetrahydro-benzo[4,5]thieno[2,3-d]pyrimidin-2-yl]-acetyl}-piperidine-4-carboxylic acid amide] the figure was below 1000 nM; with `CN(c1nc(CC(=O)Nc2ccon2)nc2sc3c(c12)CCCC3)C1CC1` [Compound 21], 1000 to 5000 nM.

As to `CNC(=O)Cc1nc(N(C)C2CC2)c2c3c(sc2n1)CCCC3` [Compound 1, 2-(4-(Cyclopropyl(methyl)amino)-5,6,7,8-tetrahydrobenzo[4,5]thieno[2,3-d]pyrimidin-2-yl)-N-methylacetamide], the concentration for half-maximal inhibition (IC50) (read-out: USP14 IC50) is 1100 nM. With `CN(c1nc(CC(=O)NCCc2cccnc2)nc2sc3c(c12)CCCC3)C1CC1` [Compound 23], under setting [1], the concentration for half-maximal inhibition (IC50) was 1000 to 5000 nM.

As to `CN(c1nc(CC(=O)N2CCC2)nc2sc3c(c12)CCCC3)C1CC1` [Compound 15, 1-(Azetidin-1-yl)-2-(4-(cyclopropyl(methyl)amino)-5,6,7,8-tetrahydrobenzo[4,5]thieno[2,3-d]pyrimidin-2-yl)ethanone], the IC50 under setting [1] was below 1000 nM. On the same count and under the same terms, with `CCNC(=O)Cc1nc(N(C)C2CC2)c2c3c(sc2n1)CCCC3` [Compound 34, 2-[4-(Cyclopropyl-methyl-amino)-5,67,8-tetrahydro-benzo[4,5]thieno[2,3-d]pyrimidin-2-yl]-N-ethyl-acetamide] the figure was 1000 to 5000 nM; with `CN(c1nc(CC(=O)N2CCC(F)(F)CC2)nc2sc3c(c12)CCCC3)C1CC1` [Compound 11, 2-[4-(Cyclopropyl-methyl-amino)-5,6,7,8-tetrahydro-benzo[4,5]thieno[2,3-d]pyrimidin-2-yl]-1-(4,4-difluoro-piperidin-1-yl)-ethanone], 1000 to 5000 nM; with `CN(c1nc(CC(=O)NCc2cccnc2)nc2sc3c(c12)CCCC3)C1CC1` [Compound 19], 1000 to 5000 nM. Same read-out and setting: with `CN(c1nc(CC(=O)N2CCC(O)CC2)nc2sc3c(c12)CCCC3)C1CC1` [Compound 27, 2-[4-(Cyclopropyl-methyl-amino)-5,6,7,8-tetrahydro-benzo[4,5]thieno[2,3-d]pyrimidin-2-yl]-1-(4-hydroxy-piperidin-1-yl)-ethanone] the figure was below 1000 nM. Same read-out and setting: with `CN(c1nc(CC(=O)N2CCC(O)C2)nc2sc3c(c12)CCCC3)C1CC1` (stereo not shown) [Compound 29, 2-[4-(Cyclopropyl-methyl-amino)-5,6,7,8-tetrahydro-benzo[4,5]thieno[2,3-d]pyrimidin-2-yl]-1-(3-hydroxy-pyrrolidin-1-yl)-ethanone] the figure was below 1000 nM; with `CN(c1nc(CC(=O)N2CCCC2C(N)=O)nc2sc3c(c12)CCCC3)C1CC1` (stereo not shown) [Compound 38, 1-(2-(4-(Cyclopropyl(methyl)amino)-5,6,7,8-tetrahydrobenzo[4,5]thieno[2,3-d]pyrimidin-2-yl)acetyl)pyrrolidine-2-carboxamide], below 1000 nM.
